Conditions: Liquid, light scattering

CCCCCCCC(=O)OCC [ethyl octanoate]
Conditions | speed of sound [m/s]
293.25 K, 100 kPa | 1281
293.65 K, 1000 kPa | 1284
293.67 K, 2510 kPa | 1290.6
293.69 K, 4020 kPa | 1296.8
293.72 K, 5520 kPa | 1301
293.75 K, 6980 kPa | 1307.1
293.77 K, 8490 kPa | 1313.5
293.77 K, 10010 kPa | 1325.8
303.05 K, 100 kPa | 1245.9
303.08 K, 8480 kPa | 1288.6
303.13 K, 7040 kPa | 1280.7
303.14 K, 3980 kPa | 1263.7
303.15 K, 1030 kPa | 1249.1
303.15 K, 2510 kPa | 1257.8
303.15 K, 5520 kPa | 1273.7
303.18 K, 10000 kPa | 1295.5
313.07 K, 100 kPa | 1211
313.15 K, 1000 kPa | 1214.2
313.28 K, 9990 kPa | 1263.2
313.38 K, 8530 kPa | 1257.4
313.39 K, 5500 kPa | 1240.3
313.4 K, 2510 kPa | 1223.2
313.4 K, 4060 kPa | 1230.6
313.41 K, 6980 kPa | 1249.6
322.88 K, 100 kPa | 1176.3
323.19 K, 8540 kPa | 1227.3
323.29 K, 10100 kPa | 1231.2
323.33 K, 1200 kPa | 1185.7
323.35 K, 2490 kPa | 1190.8
323.35 K, 3970 kPa | 1197.8
323.35 K, 5510 kPa | 1205.3
323.35 K, 7060 kPa | 1215
332.39 K, 9980 kPa | 1202.3
332.49 K, 8520 kPa | 1194.3
332.64 K, 7040 kPa | 1183.5
332.65 K, 5510 kPa | 1175.2
332.67 K, 2480 kPa | 1158.3
332.67 K, 4030 kPa | 1167.5
332.68 K, 980 kPa | 1149.1
333 K, 100 kPa | 1141.8
342.6 K, 890 kPa | 1113.2
342.61 K, 4000 kPa | 1133.9
342.64 K, 2530 kPa | 1124.1
342.71 K, 5490 kPa | 1142.7
342.74 K, 8510 kPa | 1163.8
342.77 K, 6990 kPa | 1152.8
342.94 K, 9970 kPa | 1168.8
343.12 K, 100 kPa | 1107.4
352.36 K, 100 kPa | 1073.3
353.44 K, 10120 kPa | 1135.6
353.54 K, 2480 kPa | 1088
353.54 K, 6990 kPa | 1116
353.54 K, 8520 kPa | 1129.3
353.56 K, 1030 kPa | 1080.3
353.58 K, 5480 kPa | 1103.2
353.6 K, 4000 kPa | 1096.3
363.16 K, 8500 kPa | 1095.2
363.19 K, 100 kPa | 1039.3
363.19 K, 1070 kPa | 1047.2
363.19 K, 7030 kPa | 1083.1
363.21 K, 2520 kPa | 1053.8
363.21 K, 4080 kPa | 1062
363.21 K, 5520 kPa | 1071.3
363.26 K, 10030 kPa | 1104.7
372.7 K, 2510 kPa | 1022.9
372.73 K, 3980 kPa | 1033.3
372.75 K, 8570 kPa | 1067.6
372.79 K, 100 kPa | 1005.6
372.79 K, 1040 kPa | 1013.2
372.82 K, 5530 kPa | 1046.7
372.82 K, 6960 kPa | 1055.2
372.95 K, 10040 kPa | 1074.2
382.73 K, 7000 kPa | 1020.4
382.8 K, 5550 kPa | 1012.8
382.82 K, 4060 kPa | 998.99
382.9 K, 2540 kPa | 988.47
382.95 K, 100 kPa | 972.04
382.95 K, 1050 kPa | 980.18
383.03 K, 8530 kPa | 1028.1
383.13 K, 9970 kPa | 1042.4
391.81 K, 8490 kPa | 1002.4
391.91 K, 9990 kPa | 1015
392.15 K, 7010 kPa | 991.89
392.29 K, 5490 kPa | 982.56
392.32 K, 100 kPa | 938.67
392.32 K, 1010 kPa | 945.16
392.33 K, 2550 kPa | 958.2
392.33 K, 4070 kPa | 971.34
402.89 K, 4000 kPa | 940.63
402.9 K, 7020 kPa | 959.16
402.91 K, 100 kPa | 905.5
402.91 K, 1000 kPa | 915.87
402.91 K, 2490 kPa | 928.04
402.91 K, 8480 kPa | 970.85
402.92 K, 10030 kPa | 980.74
402.93 K, 5470 kPa | 948.7
412.66 K, 8500 kPa | 941.83
412.76 K, 10040 kPa | 953.27
412.87 K, 7050 kPa | 922.57
413.17 K, 5530 kPa | 910.63
413.21 K, 100 kPa | 872.52
413.21 K, 1080 kPa | 878.09
413.21 K, 4060 kPa | 901.97
413.22 K, 2570 kPa | 890.98
423.24 K, 8520 kPa | 908.5
423.29 K, 7010 kPa | 892.99
423.3 K, 5530 kPa | 882.56
423.31 K, 2520 kPa | 857.92
423.32 K, 100 kPa | 839.73
423.32 K, 1150 kPa | 848.64
423.44 K, 10060 kPa | 919.28
423.53 K, 4090 kPa | 870.32
432.95 K, 5520 kPa | 847.49
432.96 K, 8480 kPa | 875.16
433.06 K, 10010 kPa | 888.66
433.09 K, 7010 kPa | 859.4
433.41 K, 2490 kPa | 823.86
433.44 K, 100 kPa | 807.14
433.44 K, 1010 kPa | 813.1
433.84 K, 4510 kPa | 835.67
442.69 K, 8510 kPa | 841.83
442.9 K, 7010 kPa | 829.81
442.99 K, 10020 kPa | 857.21
443.15 K, 5510 kPa | 817.42
443.16 K, 3990 kPa | 805.02
443.51 K, 2510 kPa | 790.8
443.55 K, 100 kPa | 774.74
443.55 K, 990 kPa | 780.57
452.41 K, 8480 kPa | 813.49
452.7 K, 7010 kPa | 798.22
453.15 K, 5520 kPa | 789.35
453.41 K, 10010 kPa | 826.34
453.47 K, 4510 kPa | 776.37
453.61 K, 2490 kPa | 762.74
453.66 K, 100 kPa | 742.53
453.66 K, 1010 kPa | 749.03
462.5 K, 7010 kPa | 772.63
463.14 K, 8480 kPa | 783.19
463.15 K, 5520 kPa | 760.28
463.24 K, 10010 kPa | 795.41
463.71 K, 2490 kPa | 730.68
463.78 K, 100 kPa | 710.51
463.78 K, 1010 kPa | 715.5
463.79 K, 4510 kPa | 744.72
472.07 K, 8500 kPa | 760.99
472.09 K, 1040 kPa | 688.23
472.09 K, 6960 kPa | 745.31
472.11 K, 2530 kPa | 704.34
472.14 K, 5460 kPa | 730.7
472.15 K, 4000 kPa | 718.2
472.17 K, 10000 kPa | 773.29
473.09 K, 100 kPa | 678.69

Conditions | speed of sound [m/s]
293.73 K | 1275.7
302.98 K | 1243
313.53 K | 1206.1
323.27 K | 1173.1
332.65 K | 1138.5
343.2 K | 1103.8
352.53 K | 1069.9
363.28 K | 1035.2
372.96 K | 1001.9
383 K | 969.3
392.03 K | 936.3
403.14 K | 901.4
413.12 K | 869.5
423.11 K | 835.7
433.2 K | 801.1
443.05 K | 770.7
453.11 K | 738.5
463.17 K | 705.5
472.16 K | 675

Source: the NIST ThermoML archive (doi:10.1016/j.jct.2015.12.028)
